Assays:
[1] = tested on: HCT-116; test: Antiproliferative activity against human HCT-116 cells incubated for 48 hrs by MTS assay; format: functional, cell-based; conditions: HCT-116, 48 h
[2] = tested on: RKO; test: Antiproliferative activity against human RKO cells incubated for 48 hrs by MTS assay; format: functional, cell-based

| Structure (SMILES) | IC50 [1] [µM] | IC50 [2] [µM] |
| --- | --- | --- |
| COc1cc2c(c(O)c1C(=O)/C=C/c1ccc([N+](=O)[O-])cc1)C=CC(C)(C)O2 | 163 | 133 |
| COc1ccc(/C=C/C(=O)c2c(OC)cc3c(c2O)C=CC(C)(C)O3)c(OC)c1OC | 26.3 | 23.2 |
| COc1cc(/C=C/C(=O)c2c(OC)cc3c(c2O)C=CC(C)(C)O3)cc(OC)c1 | 24.9 | 25.1 |
| COc1cc(/C=C/C(=O)c2c(OC)cc3c(c2O)C=CC(C)(C)O3)cc(OC)c1OC | 25.4 | 21.5 |

More lines, in order of falling IC50 [1], values ahead:

| IC50 [1] [µM] | Structure (SMILES) | IC50 [2] [µM] |
| --- | --- | --- |
| 154 | COc1cc2c(c(O)c1C(=O)/C=C/c1ccc(Br)cc1)C=CC(C)(C)O2 | 157 |
| 117 | CCOc1ccc(Br)cc1/C=C/C(=O)c1c(OC)cc2c(c1O)C=CC(C)(C)O2 | 165 |
| 74.2 | COc1cc2c(c(O)c1C(=O)/C=C/c1cccc(C(C)(C)C)c1)C=CC(C)(C)O2 | 89.8 |
| 36.7 | COc1cc2c(c(O)c1C(=O)/C=C/c1cccc(Br)c1)C=CC(C)(C)O2 | 35.9 |
| 32.1 | COc1cc(O)ccc1/C=C/C(=O)c1c(OC)cc2c(c1O)C=CC(C)(C)O2 | 28.4 |
| 25.1 | COc1cccc(/C=C/C(=O)c2c(OC)cc3c(c2O)C=CC(C)(C)O3)c1 | 24.4 |

— ChEMBL document CHEMBL6078725, “Discovery of novel xanthohumol C derivatives regulating XRCC2 transcription and expression for the treatment of colorectal cancer” (Bioorg Med Chem, 2025)
